Reference: PubChem BioAssay AID256 (DTP/NCI, 2004)
Where “and” joins values, the source holds several entries; their conditions need not be identical. Equal values may be shown once. Inconclusive results and toxic doses are left out. How the source made its calls: active means survival T/C of 150% or more; inactive means T/C below 125% in these data.

Test system: CD2F1 mice, L1210 leukemia ip, survival T/C
Experiment: NCI In Vivo Anticancer Drug Screen. Data for tumor model L1210 Leukemia (intraperitoneal) in CD2F1 (CDF1) mice
Details: higher = longer survival
In short: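 Ratio T/C, where T is the treated-group value and C the vehicle-dosed control value, from mice implanted with a transplantable tumor.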

[1] = endpoint: mean survival time, dose: 100.0 mg/kg/injection, schedule: Q04DX002 (ip), vehicle: saline with Tween-80
[2] = endpoint: mean survival time, dose: 200.0 mg/kg/injection, schedule: Q04DX002 (ip), vehicle: saline with Tween-80
[3] = endpoint: mean survival time, dose: 50.0 mg/kg/injection, schedule: Q01DX009 (ip), vehicle: saline with Tween-80
[4] = endpoint: mean survival time, dose: 100.0 mg/kg/injection, schedule: Q01DX009 (ip), vehicle: saline with Tween-80
[5] = endpoint: mean survival time, dose: 200.0 mg/kg/injection, schedule: Q01DX009 (ip), vehicle: saline with Tween-80
[6] = endpoint: median survival time, dose: 12.5 mg/kg/injection, schedule: Q01DX005 (ip), vehicle: water
[7] = endpoint: median survival time, dose: 25.0 mg/kg/injection, schedule: Q01DX005 (ip), vehicle: water
[8] = endpoint: median survival time, dose: 50.0 mg/kg/injection, schedule: Q01DX005 (ip), vehicle: water
[9] = endpoint: mean survival time, dose: 200.0 mg/kg/injection, schedule: Q01DX001 (ip), vehicle: saline with Tween-80
[10] = endpoint: mean survival time, dose: 100.0 mg/kg/injection, schedule: Q04DX003 (ip), vehicle: saline with Tween-80

Measured: T/C

Cn1c(=O)sc2ccccc21
inactive: [1] 111 % of control | [2] 114 % of control

COc1ccc2c(ccc3cc(OC)ccc32)c1
inactive: endpoint: mean survival time, dose: 50.0 mg/kg/injection, schedule: Q04DX002 (ip), vehicle: saline with Tween-80 93 % of control | [1] 100 % of control | [2] 93 % of control

O=[N+]([O-])c1ccc(Cl)c2c([N+](=O)[O-])cccc12
inactive: [3] 100 % of control | [4] 93 % of control | [5] 96 % of control

NC(=S)N/N=C/c1ccc2c(c1)OCO2
inactive: [3] 98 % of control | [4] 110 % of control | [5] 98 % of control

CCOC1NC(=O)Oc2ccccc21 (configuration not stated)
inactive: endpoint: median survival time, dose: 50.0 mg/kg/injection, schedule: Q01DX005 (ip), vehicle: Klucel (hydroxypropylcellulose) (HPC) 100 % of control | endpoint: median survival time, dose: 100.0 mg/kg/injection, schedule: Q01DX005 (ip), vehicle: Klucel (hydroxypropylcellulose) (HPC) 95 % of control | endpoint: median survival time, dose: 200.0 mg/kg/injection, schedule: Q01DX005 (ip), vehicle: Klucel (hydroxypropylcellulose) (HPC) 108 % of control

O=c1nc(NC2CC2)ccn1C1OC(CO)C(O)C1O (configuration not stated)
inactive: [6] 97 % of control | [7] 106 % of control | [8] 107 % of control | endpoint: median survival time, dose: 100.0 mg/kg/injection, schedule: Q01DX005 (ip), vehicle: water 107 % of control | endpoint: median survival time, dose: 200.0 mg/kg/injection, schedule: Q01DX005 (ip), vehicle: water 101 % of control

Cc1ccccc1N=Nc1ccccc1
inactive: endpoint: mean survival time, dose: 100.0 mg/kg/injection, schedule: Q01DX001 (ip), vehicle: saline with Tween-80 104 % of control | [9] 96 % of control | endpoint: mean survival time, dose: 400.0 mg/kg/injection, schedule: Q01DX001 (ip), vehicle: saline with Tween-80 101 % of control

CCOC(=O)C12CCCCC1C/C(=N/NC(N)=O)CC2 (configuration not stated)
inactive: endpoint: mean survival time, dose: 50.0 mg/kg/injection, schedule: Q04DX003 (ip), vehicle: saline with Tween-80 96 % of control | endpoint: mean survival time, dose: 100.0 mg/kg/injection, schedule: Q01DX001 (ip), vehicle: acetone 92 % of control | endpoint: mean survival time, dose: 100.0 mg/kg/injection, schedule: Q04DX003 (ip), vehicle: acetone 96 % of control | [10] 96 % of control | endpoint: mean survival time, dose: 200.0 mg/kg/injection, schedule: Q01DX001 (ip), vehicle: acetone 94 % of control | [9] 88 % of control | endpoint: mean survival time, dose: 200.0 mg/kg/injection, schedule: Q04DX003 (ip), vehicle: acetone 90 % of control | endpoint: mean survival time, dose: 400.0 mg/kg/injection, schedule: Q01DX001 (ip), vehicle: acetone 97 % of control | endpoint: mean survival time, dose: 400.0 mg/kg/injection, schedule: Q04DX003 (ip), vehicle: acetone 90 % of control

COC(=O)C(C(=O)OC)C(Br)(C(=O)OC)C(=O)OC
inactive: [4] 98 % of control | [10] 91 % of control | [5] 103 % of control | endpoint: mean survival time, dose: 200.0 mg/kg/injection, schedule: Q04DX003 (ip), vehicle: saline with Tween-80 91 % of control | endpoint: mean survival time, dose: 400.0 mg/kg/injection, schedule: Q04DX003 (ip), vehicle: saline with Tween-80 95 % of control

CC(=O)N=C1C=C(NC(C)=O)C(=O)c2ncccc21
inactive: endpoint: mean survival time, dose: 6.25 mg/kg/injection, schedule: Q04DX002 (ip), vehicle: saline with Tween-80 95 % of control | endpoint: mean survival time, dose: 12.5 mg/kg/injection, schedule: Q04DX002 (ip), vehicle: saline with Tween-80 119 % of control | endpoint: mean survival time, dose: 25.0 mg/kg/injection, schedule: Q04DX002 (ip), vehicle: saline with Tween-80 119 % of control

N#Cc1ccc(NN=O)nc1
active: endpoint: median survival time, dose: 15.0 mg/kg/injection, schedule: Q01DX005 (ip), vehicle: water 152 % of control and 158 % of control | [7] 164 % of control and 175 % of control | endpoint: median survival time, dose: 41.66 mg/kg/injection, schedule: Q01DX005 (ip), vehicle: water 191 % of control
inactive: endpoint: median survival time, dose: 3.12 mg/kg/injection, schedule: Q01DX005 (ip), vehicle: water 109 % of control | endpoint: median survival time, dose: 6.25 mg/kg/injection, schedule: Q01DX005 (ip), vehicle: water 120 % of control | [6] 124 % of control | [8] 95 % of control | endpoint: median survival time, dose: 69.4 mg/kg/injection, schedule: Q01DX005 (ip), vehicle: water 118 % of control
